Source: US20180035670A1, “ACTIVE COMPOUND COMBINATIONS” (BAYER CROPSCIENCE AKTIENGESELLSCHAFT, priority 2015, published 2018)
Several values for one entry are separate records, joined by “and”; a condition that tells them apart may be missing. Equal entries are not always repeated. Where two headings read alike, the source gives them in different places.

Assays:
[1] = system: Venturia inaequalis; test: in vivo preventive test on Venturia test (apples); details: for pest or weed control at 0.25 ppm: read-out: Efficacy in % found, 0.25 ppm a.i., apples, 10 days after inoculation; for pest or weed control at 0.5 ppm: read-out: Efficacy in % found, 0.5 ppm a.i., apples, 10 days after inoculation; for pest or weed control at 1 ppm: read-out: Efficacy in % found, 1 ppm a.i., apples, 10 days after inoculation; for pest or weed control at 10 ppm: read-out: Efficacy in % found, 10 ppm a.i., apples, 10 days after inoculation; for pest or weed control at 2 ppm: read-out: Efficacy in % found, 2 ppm a.i., apples, 10 days after inoculation; for Efficacy in % found: apples, 10 days after inoculation
Protocol: After the spray coating has dried on, the plants are inoculated with an aqueous conidia suspension of the causal agent of apple scab (Venturia inaequalis) and then remain for 1 day in an incubation cabinet at approximately 20° C. and a relative atmospheric humidity of 100%. The plants are then placed in a greenhouse at approximately 21° C. and a relative atmospheric humidity of approximately 90%.
The test is evaluated 10 days after the inoculation.

[2] = system: Alternaria solani; test: in vivo preventive test on Alternaria test (tomatoes); details: 3 days after inoculation
Protocol: After the spray coating has dried on, the plants are inoculated with an aqueous spore suspension of Alternaria solani. The plants are then placed in an incubation cabinet at approximately 20° C. and a relative atmospheric humidity of 100%.
The test is evaluated 3 days after the inoculation.

[3] = system: Sphaerotheca fuliginea; test: in vivo preventive test on Sphaerotheca test (cucumbers); details: 7 days after inoculation
Protocol: After the spray coating has dried on, the plants are inoculated with an aqueous spore suspension of Sphaerotheca fuliginea. The plants are then placed in a greenhouse at approximately 23° C. and a relative atmospheric humidity of approximately 70%.
The test is evaluated 7 days after the inoculation.

[4] = system: Phakopsora pachyrhizi; test: in vivo preventive test on Phakopsora test (soybeans); details: 7 days after inoculation; for pest or weed control at 0.5 ppm: 0.5 ppm a.i.; for pest or weed control at 1 ppm: 1 ppm a.i.; for pest or weed control at 0.25 ppm: 0.25 ppm a.i.
[5] = system: Botrytis cinerea; test: in vivo preventive test on Botrytis test (beans); details: 2 days after inoculation
Protocol: After the spray coating has dried on, 2 small pieces of agar covered with growth of Botrytis cinerea are placed on each leaf.
The inoculated plants are placed in a darkened chamber at 20° C. and a relative atmospheric humidity of 100%.
2 days after the inoculation, the size of the lesions on the leaves is evaluated.

[6] = system: Phytophthora infestans; format: in vivo; details: tomatoes, 3 days after inoculation
[7] = Phakopsora pachyrhizi, 168 h, read-out: Efficacy in % found

Molecule | pest or weed control at 0.25 ppm ([1]; Venturia inaequalis, 240 h) [%] | pest or weed control at 0.5 ppm ([1]; Venturia inaequalis, 240 h) [%] | Efficacy in % found ([2]; 0.25 ppm a.i.) [%] | Efficacy in % found ([2]; 0.5 ppm a.i.) | Efficacy in % found ([2]; 1 ppm a.i.) | pest or weed control at 0.5 ppm [4, 7] [%] | pest or weed control at 1 ppm [4, 7] [%] | pest or weed control at 0.25 ppm [4, 7] [%] | Efficacy in % found ([5]; 0.5 ppm a.i.) [%] | Efficacy in % found ([5]; 1 ppm a.i.) | Efficacy in % found ([6]; 10 ppm a.i.) [%] | Efficacy in % found ([6]; 20 ppm a.i.) [%] | Efficacy in % found ([5]; 0.25 ppm a.i.) [%] | Efficacy in % found ([2]; 2 ppm a.i.) [%] | also measured
CC(O)(Cn1cncn1)c1ccc(Oc2ccc(Cl)cc2)cc1C(F)(F)F (centres unmarked) [1.084, 2-[4-(4-chlorophenoxy)-2-(trifluoromethyl)phenyl]-1-(1H-1,2,4-triazol-1-yl)propan-2-ol] | 11 | 34 | 8 | 8% and 0% | 15% | 8 | 0 | – | – | – | – | – | – | – | pest or weed control at 1 ppm ([1]; Venturia inaequalis, 240 h): 31%; Efficacy in % found ([3]; 0.5 ppm a.i.): 0%
O[C@@H](c1cccnc1)c1c(-c2ccc(Cl)cc2F)noc1-c1ccc(F)cc1F [1.104, (S)-[3-(4-chloro-2-fluorophenyl)-5-(2,4-difluorophenyl)-1,2-oxazol-4-yl](pyridin-3-yl)methanol] | 0 | 11 | 0 | 0% | 0% | – | 0 | 0 | 15 | 26% | – | – | – | – | pest or weed control at 1 ppm ([1]; Venturia inaequalis, 240 h): 19%; Efficacy in % found ([3]; 0.25 ppm a.i.): 0%; Efficacy in % found ([3]; 1 ppm a.i.): 0%
COC(=O)Nc1nc2ccccc2[nH]1 [4.002, carbendazim, reference compound] | – | – | – | – | – | – | – | – | – | – | – | – | – | – | pest or weed control at 5 ppm ([1]; Venturia inaequalis, 240 h, read-out: Efficacy in % found, 5 ppm a.i., apples, 10 days after inoculation): 8%; pest or weed control at 10 ppm ([1]; Venturia inaequalis, 240 h): 21%; Efficacy in % found ([2]; 10 ppm a.i.): 0%; pest or weed control at 1.25 ppm ([4]; Phakopsora pachyrhizi, 168 h, 1.25 ppm a.i., read-out: Efficacy in % found): 0%; pest or weed control at 2.5 ppm ([4]; Phakopsora pachyrhizi, 168 h, 2.5 ppm a.i., read-out: Efficacy in % found): 0%; Efficacy in % found ([5]; 5 ppm a.i.): 0%
N#Cc1c(Cl)c(Cl)c(Cl)c(C#N)c1Cl [5.004, chlorothalonil, reference compound] | – | – | – | – | – | – | – | – | – | – | – | – | – | – | pest or weed control at 25 ppm ([1]; Venturia inaequalis, 240 h, read-out: Efficacy in % found, 25 ppm a.i., apples, 10 days after inoculation): 36%; Efficacy in % found ([2]; 50 ppm a.i.): 0%; pest or weed control at 6.25 ppm ([4]; Phakopsora pachyrhizi, 168 h, 6.25 ppm a.i., read-out: Efficacy in % found): 18%; pest or weed control at 12.5 ppm ([4]; Phakopsora pachyrhizi, 168 h, 12.5 ppm a.i., read-out: Efficacy in % found): 0%
O=[N+]([O-])c1cc(C(F)(F)F)c(Cl)c([N+](=O)[O-])c1Nc1ncc(C(F)(F)F)cc1Cl [14.004, fluazinam, reference compound] | – | – | – | – | – | – | – | – | – | – | 45 | 28 | – | – | pest or weed control at 10 ppm ([1]; Venturia inaequalis, 240 h): 0%; Efficacy in % found ([2]; 10 ppm a.i.): 0%; pest or weed control at 5 ppm ([4]; Phakopsora pachyrhizi, 168 h, 5 ppm a.i., read-out: Efficacy in % found): 0%; Efficacy in % found ([5]; 5 ppm a.i.): 63%
CC1(C)N=C(c2cnc3ccccc3c2)c2ccccc2C1(F)F [15.090, 3-(4,4-difluoro-3,3-dimethyl-3,4-dihydroisoquinolin-1-yl)quinoline] | 19 | – | – | – | – | 0 | 0 | 0 | 0 | 28% | – | – | 0 | – | –
CCC1CC(C)(C)c2cccc(NC(=O)c3cccnc3C(F)F)c21 (centres unmarked) [(I-3), 2-(difluoromethyl)-N-(3-ethyl-1,1-dimethyl-2,3-dihydro-1H-inden-4-yl)nicotinamide] | 4 | 18 | 15 | 23% | 40% | 65 | 84 | – | – | 15% | – | 4 | – | 35 | pest or weed control at 2 ppm ([1]; Venturia inaequalis, 240 h): 11%; Efficacy in % found ([3]; 0.5 ppm a.i.): 0%; Efficacy in % found ([3]; 1 ppm a.i.): 0%; Efficacy in % found ([6]; 5 ppm a.i.): 28%; Efficacy in % found ([5]; 2 ppm a.i.): 23%
CC[C@@H]1CC(C)(C)c2cccc(NC(=O)c3cccnc3C(F)F)c21 [(I-4), 2-(difluoromethyl)-N-[(3R)-3-ethyl-1,1-dimethyl-2,3-dihydro-1H-inden-4-yl]nicotinamide] | 15 | – | 8 | 40% | 30% and 55% | 85 | – | 65 | 8 | – | 10 | 7 | 0 | 35 | –
CCCC1CC(C)(C)c2cccc(NC(=O)c3cccnc3C(F)F)c21 (centres unmarked) [(I-5), 2-(difluoromethyl)-N-(1,1-dimethyl-3-propyl-2,3-dihydro-1H-inden-4-yl)nicotinamide] | 8 | 0 | – | – | 0% | – | – | 60 | 0 | – | 0 | 4 | 0 | 8 | pest or weed control at 2 ppm ([1]; Venturia inaequalis, 240 h): 0%; Efficacy in % found ([6]; 5 ppm a.i.): 17%
CCC[C@@H]1CC(C)(C)c2cccc(NC(=O)c3cccnc3C(F)F)c21 [(I-6), 2-(difluoromethyl)-N-[(3R)-1,1-dimethyl-3-propyl-2,3-dihydro-1H-inden-4-yl]nicotinamide] | – | 0 | 0 | 0% | 8% and 15% | – | – | 75 | 0 | 19% and 11% | 14 | 8 | 15 | 51 | pest or weed control at 2 ppm ([1]; Venturia inaequalis, 240 h): 15%; Efficacy in % found ([6]; 5 ppm a.i.): 21%
mancozeb [5.023, reference compound] | – | – | – | – | – | – | – | – | – | – | – | – | – | – | Efficacy in % found ([1]; 25 ppm a.i.): 31%; Efficacy in % found ([1]; 50 ppm a.i.): 34%; Efficacy in % found ([2]; 50 ppm a.i.): 0%; Efficacy in % found ([4]; 6.25 ppm a.i.): 24%; Efficacy in % found ([4]; 12.5 ppm a.i.): 41%; Efficacy in % found ([5]; 25 ppm a.i.): 0%; Efficacy in % found ([5]; 50 ppm a.i.): 0%
propineb [5.029, reference compound] | – | – | – | – | – | – | – | – | – | – | – | – | – | – | Efficacy in % found ([1]; 12.5 ppm a.i.): 11%; Efficacy in % found ([1]; 25 ppm a.i.): 94%; Efficacy in % found ([2]; 50 ppm a.i.): 0%; Efficacy in % found ([4]; 6.25 ppm a.i.): 0%; Efficacy in % found ([4]; 12.5 ppm a.i.): 0%; Efficacy in % found ([5]; 25 ppm a.i.): 0%
